Measured values: the supplement of paper PMC10627819

What was measured:
[1] = system: B. subtilis 168; test: fitness (endpoint OD595 vs no drug) (fraction); higher = more growth
Procedure, shortened: (§1)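 Fitness was defined as the optical density at the transition into stationary phase relative to the robust mean of no-drug control wells. Values were capped at 1. Cultures were started at OD595 0.01 in 384-well plates (30 µl, or 55 µl for S. pneumoniae) in TSB, LB Lennox or CY at 37 °C. OD595 was recorded every 30 min over 14 h, with the first reading subtracted as background.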

[2] = system: S. aureus DSM 20231; test: as above
Procedure, shortened: as §1

[3] = system: S. pneumoniae D39V; test: as above
Procedure, shortened: as §1

[4] = system: S. aureus Newman; test: Bliss interaction score (quartile over a dose matrix) (fitness difference); higher = more antagonism (negative = synergy)
Procedure, shortened: (§2)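 The Bliss score is observed minus expected fitness under the product model, reported as quartiles over technical, biological and donor/recipient replicates. Fitness is the OD595 at entry into stationary phase divided by the plate's robust no-drug mean and capped at 1. Single-drug fitness was inferred from combination data.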

[5] = system: B. subtilis 168; test: as above
Procedure, shortened: as §2

[6] = system: S. aureus DSM 20231; test: as above
Procedure, shortened: as §2

[7] = system: S. pneumoniae D39V; test: as above
Procedure, shortened: as §2
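For Bliss interaction score (quartile over a dose matrix) in this document: first quartile when negative (synergy) and third quartile when positive (antagonism).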

O=C(O[C@@H]1Cc2c(O)cc(O)cc2O[C@@H]1c1cc(O)c(O)c(O)c1)c1cc(O)c(O)c(O)c1 [EGCG] + CC(=O)NC[C@H]1CN(c2ccc(N3CCOCC3)c(F)c2)C(=O)O1 [Linezolid]
fitness, one replicate
Details	first compound 6.25 µg/mL	first compound 12.5 µg/mL	first compound 25 µg/mL	first compound 50 µg/mL
[1], partner 0.0625 µg/mL	0.854	0.61	0.286	–
[2], partner 1 µg/mL	–	0.0545	0.076	0.0554

fitness
Details	first compound 6.25 µg/mL	first compound 12.5 µg/mL	first compound 25 µg/mL	first compound 50 µg/mL
[1], partner 0.125 µg/mL	0.582	0.482	–	–
[1], partner 0.25 µg/mL	–	–	0.0697	–
[1], partner 0.5 µg/mL	0.0716	0.0599	0.0583	–
[2], partner 0.125 µg/mL	–	0.745	0.816	0.708
[2], partner 0.25 µg/mL	–	0.551	0.559	0.563
[2], partner 0.5 µg/mL	–	0.223	0.25	0.159
[3], partner 0.105 µg/mL	–	0.735	0.634	0.752
[3], partner 0.2 µg/mL	–	0.533	0.517	0.411
[3], partner 0.21 µg/mL	–	0.604	0.688	0.64
[3], partner 0.4 µg/mL	–	0.283	0.249	0.218
[3], partner 0.42 µg/mL	–	0.505	–	0.498
[3], partner 0.8 µg/mL	–	0.12	0.0783	0.133

Details	Bliss interaction score
[4]	0.0955
[5]	0.0875
[6]	0.0748
[7]	-0.1

O=C(O[C@@H]1Cc2c(O)cc(O)cc2O[C@@H]1c1cc(O)c(O)c(O)c1)c1cc(O)c(O)c(O)c1 [EGCG] + CCC[C@@H]1C[C@@H](C(=O)N[C@@H]([C@H]2O[C@H](SC)[C@H](O)[C@@H](O)[C@H]2O)[C@@H](C)O)N(C)C1 [Lincomycin]
fitness
Details	partner 0.1 µg/mL	partner 0.2 µg/mL	partner 0.215 µg/mL	partner 0.4 µg/mL	partner 0.43 µg/mL	partner 0.8 µg/mL	partner 0.86 µg/mL
[1], first compound 6.25 µg/mL	0.889	0.88	–	0.908	–	–	–
[2], first compound 12.5 µg/mL	0.593	0.505	–	0.354	–	–	–
[2], first compound 25 µg/mL	0.592	0.553	–	0.306	–	–	–
[2], first compound 50 µg/mL	0.549	–	–	0.142	–	–	–
[3], first compound 12.5 µg/mL	–	0.429	0.739	0.273	0.565	0.0193	0.389
[3], first compound 25 µg/mL	–	0.483	0.713	0.439	0.668	0.0594	0.456
[3], first compound 50 µg/mL	–	0.328	0.565	0.182	0.671	–	–

fitness, [1], one replicate
Details	first compound 6.25 µg/mL	first compound 12.5 µg/mL	first compound 25 µg/mL
partner 0.8 µg/mL	0.908	0.761	0.709
partner 1.6 µg/mL	0.864	0.734	0.606

Details	Bliss interaction score
[4]	-0.056
[5]	0.102
[6]	-0.119
[7]	-0.112

CCC[C@@H]1C[C@@H](C(=O)N[C@@H]([C@H]2O[C@H](SC)[C@H](O)[C@@H](O)[C@H]2O)[C@@H](C)O)N(C)C1 [Lincomycin] + CC1=C\[C@@H](O)CC(=O)Cc2nc(co2)C(=O)N2CCC=C2C(=O)O[C@H](C(C)C)[C@H](C)/C=C/C(=O)NC\C=C\1 [Virginiamycin M1]
Details	fitness
[1], first compound 0.1 µg/mL, partner 0.0625 µg/mL	0.945
[1], first compound 0.1 µg/mL, partner 0.125 µg/mL	0.936
[1], first compound 0.1 µg/mL, partner 0.25 µg/mL	0.922
[1], first compound 0.2 µg/mL, partner 0.0625 µg/mL	0.91
[1], first compound 0.2 µg/mL, partner 0.125 µg/mL	0.925
[1], first compound 0.2 µg/mL, partner 0.25 µg/mL	0.949
[1], first compound 0.4 µg/mL, partner 0.0625 µg/mL	0.99
[1], first compound 0.4 µg/mL, partner 0.125 µg/mL	0.871
[1], first compound 0.4 µg/mL, partner 0.25 µg/mL	0.985
[2], first compound 0.1 µg/mL, partner 0.0625 µg/mL	0.844
[2], first compound 0.1 µg/mL, partner 0.125 µg/mL	0.857
[2], first compound 0.1 µg/mL, partner 0.25 µg/mL	0.875
[2], first compound 0.2 µg/mL, partner 0.0625 µg/mL	0.73
[2], first compound 0.2 µg/mL, partner 0.125 µg/mL	0.736
[2], first compound 0.2 µg/mL, partner 0.25 µg/mL	0.7
[2], first compound 0.4 µg/mL, partner 0.0625 µg/mL	0.361
[2], first compound 0.4 µg/mL, partner 0.125 µg/mL	0.242
[2], first compound 0.4 µg/mL, partner 0.25 µg/mL	0.267
[3], first compound 0.2 µg/mL, partner 2 µg/mL	0.731
[3], first compound 0.215 µg/mL, partner 0.5 µg/mL	0.857
[3], first compound 0.215 µg/mL, partner 1 µg/mL	0.882
[3], first compound 0.215 µg/mL, partner 2 µg/mL	0.836
[3], first compound 0.4 µg/mL, partner 2 µg/mL	0.642
[3], first compound 0.43 µg/mL, partner 0.5 µg/mL	0.73
[3], first compound 0.43 µg/mL, partner 1 µg/mL	0.781
[3], first compound 0.43 µg/mL, partner 2 µg/mL	0.741
[3], first compound 0.8 µg/mL, partner 2 µg/mL	0.333
[3], first compound 0.86 µg/mL, partner 0.5 µg/mL	0.268
[3], first compound 0.86 µg/mL, partner 1 µg/mL	0.207
[3], first compound 0.86 µg/mL, partner 2 µg/mL	0.195

fitness, one replicate
Details	first compound 0.1 µg/mL	first compound 0.2 µg/mL	first compound 0.4 µg/mL	first compound 0.8 µg/mL
[2], partner 0.5 µg/mL	0.878	0.66	0.3	–
[2], partner 1 µg/mL	0.7	0.486	0.238	–
[3], partner 0.15 µg/mL	–	0.807	0.694	0.596
[3], partner 0.3 µg/mL	–	0.796	0.657	0.573
[3], partner 0.5 µg/mL	–	0.8	0.761	0.449
[3], partner 1 µg/mL	–	0.71	0.655	0.416

Details	Bliss interaction score
[4]	0.0588
[5]	-0.0247
[6]	-0.0744
[7]	-0.0882
